Reference: ChEMBL document CHEMBL1667734, “Eutypoids B-E produced by a Penicillium sp. strain from the North Sea” (J Nat Prod, 2011)
Active and inactive are the calls of the source. The rule behind the calls is not given here.

What was measured:
[1] = target: Glycogen synthase kinase-3 beta (Homo sapiens, UniProt P49841); test: Inhibition of GSK3-beta by luminescent assay
Bacillus subtilis = test: Antimicrobial activity against Bacillus subtilis DSM 347; assay type: functional, organism-based
Erwinia amylovora = test: Antimicrobial activity against Erwinia amylovora DSM 50901; assay type: functional, organism-based
Escherichia coli = test: Antimicrobial activity against Escherichia coli K-12 DSM 498; assay type: functional, organism-based
Pseudomonas fluorescens = test: Antimicrobial activity against Pseudomonas fluorescens NCIMB 10586; assay type: functional, organism-based
Cutibacterium acnes = test: Antimicrobial activity against Propionibacterium acnes DSM 1897; assay type: functional, organism-based
Pseudomonas aeruginosa = test: Antimicrobial activity against Pseudomonas aeruginosa DSM 50071; assay type: functional, organism-based
[2] = system: Pseudomonas syringae pv. aptata str. DSM 50252; test: Antimicrobial activity against Pseudomonas syringae pv aptata DSM 50252; assay type: functional
Ralstonia solanacearum = test: Antimicrobial activity against Ralstonia solanacearum DSM 9544; assay type: functional, organism-based
[3] = system: Staphylococcus epidermidis; test: Antimicrobial activity against Staphylococcus epidermidis DSM 20044; assay type: functional, organism-based
Mammaliicoccus lentus = test: Antimicrobial activity against Staphylococcus lentus DSM 6672; assay type: functional, organism-based
Xanthomonas campestris = test: Antimicrobial activity against Xanthomonas campestris DSM 2405; assay type: functional, organism-based
Nakaseomyces glabratus = test: Antimicrobial activity against Candida glabrata DSM 6425; assay type: functional, organism-based
Zymoseptoria tritici = test: Antimicrobial activity against Septoria tritici; assay type: functional, organism-based
[4] = Cytotoxicity against mouse NIH/3T3 cells after 24 hrs by celltiter-blue assay; assay type: cell-based; conditions: nih3t3, 24 h
HepG2 = test: Cytotoxicity against human HepG2 cells after 24 hrs by celltiter-blue assay; assay type: functional, cell-based
HT-29 = test: Cytotoxicity against human HT-29 cells after 24 hrs by celltiter-blue assay; assay type: functional, cell-based
Parastagonospora nodorum = test: Antimicrobial activity against Septoria nodorum; assay type: functional, organism-based

Chain of Glycogen synthase kinase-3 beta (P49841 whole entry): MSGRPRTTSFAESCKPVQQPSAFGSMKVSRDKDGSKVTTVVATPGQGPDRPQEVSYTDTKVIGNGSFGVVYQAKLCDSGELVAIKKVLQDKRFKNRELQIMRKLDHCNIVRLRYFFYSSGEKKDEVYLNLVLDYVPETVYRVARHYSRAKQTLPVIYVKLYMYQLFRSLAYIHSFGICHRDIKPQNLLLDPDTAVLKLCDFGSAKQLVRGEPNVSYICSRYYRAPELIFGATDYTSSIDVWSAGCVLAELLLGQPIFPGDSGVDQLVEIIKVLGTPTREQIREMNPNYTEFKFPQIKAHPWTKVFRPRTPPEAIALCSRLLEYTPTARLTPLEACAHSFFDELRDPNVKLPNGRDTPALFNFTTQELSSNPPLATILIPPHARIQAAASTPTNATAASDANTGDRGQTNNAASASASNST

SMILES	IC50 [1]	Activity (Bacillus subtilis)	Activity (Erwinia amylovora)	Activity (Escherichia coli)	Activity (Pseudomonas fluorescens)	Activity (Cutibacterium acnes)	Activity (Pseudomonas aeruginosa)	Activity [2]	Activity (Ralstonia solanacearum)	Activity [3]	Activity (Mammaliicoccus lentus)	Activity (Xanthomonas campestris)	Activity (Nakaseomyces glabratus)	Activity (Zymoseptoria tritici)	Activity [4]	Activity (HepG2)	Activity (HT-29)	Activity (Parastagonospora nodorum)
O=C1OCC(Cc2ccc(O)cc2)=C1c1cc(O)cc(O)c1 [EUTYPOID D]	4080 nM	inactive	inactive	inactive	inactive	inactive	inactive	inactive	inactive	inactive	inactive	inactive	inactive	inactive	Non-toxic	inactive	inactive	
O=C1OCC(Cc2ccccc2)=C1c1ccccc1																		Active
O=C1OCC(Cc2ccc(O)c(O)c2)=C1c1cc(O)cc(O)c1 [EUTYPOID E]	2260 nM	inactive	inactive	inactive	inactive	inactive	inactive	inactive	inactive	inactive	inactive	inactive	inactive	inactive	Non-toxic	inactive	inactive	
O=C1OCC(Cc2ccc(O)cc2)=C1c1ccc(O)cc1 [EUTYPOID B]	780 nM	inactive	inactive	inactive	inactive	inactive	inactive	inactive	inactive	inactive	inactive	inactive	inactive	inactive	Non-toxic	inactive	inactive	
O=C1OCC(Cc2ccc(O)c(O)c2)=C1c1ccc(O)cc1 [EUTYPOID C]	670 nM	inactive	inactive	inactive	inactive	inactive	inactive	inactive	inactive	inactive	inactive	inactive	inactive	inactive	Non-toxic	inactive	inactive	
